Laboratory results from patent EP1935986B1, “Luminogenic and fluorogenic compounds and methods to detect molecules or conditions” (priority 2005, dated 2006).
Several values for one entry are separate records, joined by “and”; a condition that tells them apart may be missing. Identical values can stand only once.

Assays:
[1] = tested on: human recombinant flavin-containing monooxygenase 1 (FMO 1); experiment: Two-step luminescent FMO assay with luciferin derivative; type: biochemical; conditions: Table 32; CHES pH 9.5, NADPH regeneration, 4 hours room temperature; duplicates
[2] = tested on: human recombinant flavin-containing monooxygenase 3 (FMO 3); experiment: as above; type: biochemical; conditions: Table 32; CHES pH 9.5, NADPH regeneration, 4 hours room temperature; duplicates
[3] = tested on: luciferase; experiment: No-enzyme control: activity of luciferase towards the luciferin derivative (background luminescence); conditions: Table 32; microsomes from wild type baculovirus infected insect cells instead of FMO; CHES pH 9.5, 4 hours; duplicates
[4] = target: T1, CYP2D6 (Homo sapiens, UniProt P10635); experiment: Screening inhibitors of CYP2D6 with luciferin-6-methylether ethylene glycol ester (IC50); type: biochemical; conditions: substrate luciferin-6-methylether ethylene glycol ester
T1 construct: purchased Discovery Labware (BD/Gentest); host or cells: insect cell expression system (membrane fractions)
T1 sequence (P10635 whole entry): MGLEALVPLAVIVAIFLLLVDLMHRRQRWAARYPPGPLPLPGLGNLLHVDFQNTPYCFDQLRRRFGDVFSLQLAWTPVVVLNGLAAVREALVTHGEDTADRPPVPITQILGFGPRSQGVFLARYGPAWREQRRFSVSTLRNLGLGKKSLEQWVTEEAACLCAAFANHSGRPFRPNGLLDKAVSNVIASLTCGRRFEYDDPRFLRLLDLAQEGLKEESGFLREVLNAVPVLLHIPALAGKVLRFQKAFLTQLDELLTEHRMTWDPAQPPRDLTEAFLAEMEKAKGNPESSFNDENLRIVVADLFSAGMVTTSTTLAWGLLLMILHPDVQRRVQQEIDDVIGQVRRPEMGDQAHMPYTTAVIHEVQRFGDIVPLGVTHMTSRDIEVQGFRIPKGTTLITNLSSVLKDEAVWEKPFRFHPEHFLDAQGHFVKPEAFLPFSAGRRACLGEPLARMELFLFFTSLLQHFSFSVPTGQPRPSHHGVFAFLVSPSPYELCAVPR

[5] = target: T2, human recombinant monoamine oxidase B (MAO B) (Homo sapiens, UniProt P27338); conditions: published values; cited from earlier work
T2 construct: purchased Sigma Chemical Company M-7441; host or cells: baculovirus infected insect cells (microsomes)
T2 sequence (P27338 1-520): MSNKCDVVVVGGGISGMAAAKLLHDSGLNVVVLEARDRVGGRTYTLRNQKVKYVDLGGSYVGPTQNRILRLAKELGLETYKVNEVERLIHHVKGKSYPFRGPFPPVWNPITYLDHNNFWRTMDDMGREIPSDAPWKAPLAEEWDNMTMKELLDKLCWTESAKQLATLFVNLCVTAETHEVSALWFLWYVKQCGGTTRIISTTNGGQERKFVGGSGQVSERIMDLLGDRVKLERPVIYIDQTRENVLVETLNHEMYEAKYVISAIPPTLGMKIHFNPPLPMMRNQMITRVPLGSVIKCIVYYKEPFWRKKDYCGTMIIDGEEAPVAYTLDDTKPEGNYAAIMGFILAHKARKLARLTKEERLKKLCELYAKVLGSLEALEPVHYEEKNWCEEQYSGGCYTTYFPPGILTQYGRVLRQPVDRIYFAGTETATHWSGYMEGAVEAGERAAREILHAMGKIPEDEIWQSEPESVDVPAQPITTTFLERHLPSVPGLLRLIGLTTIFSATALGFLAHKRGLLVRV

[6] = target: T3, human recombinant monoamine oxidase A (MAO A) (Homo sapiens, UniProt P21397); design: purchased Sigma Chemical Company M-7316; host or cells: baculovirus infected insect cells (microsomes); conditions: read-out: published values MAO A; cited from earlier work
T3 sequence (P21397 1-527): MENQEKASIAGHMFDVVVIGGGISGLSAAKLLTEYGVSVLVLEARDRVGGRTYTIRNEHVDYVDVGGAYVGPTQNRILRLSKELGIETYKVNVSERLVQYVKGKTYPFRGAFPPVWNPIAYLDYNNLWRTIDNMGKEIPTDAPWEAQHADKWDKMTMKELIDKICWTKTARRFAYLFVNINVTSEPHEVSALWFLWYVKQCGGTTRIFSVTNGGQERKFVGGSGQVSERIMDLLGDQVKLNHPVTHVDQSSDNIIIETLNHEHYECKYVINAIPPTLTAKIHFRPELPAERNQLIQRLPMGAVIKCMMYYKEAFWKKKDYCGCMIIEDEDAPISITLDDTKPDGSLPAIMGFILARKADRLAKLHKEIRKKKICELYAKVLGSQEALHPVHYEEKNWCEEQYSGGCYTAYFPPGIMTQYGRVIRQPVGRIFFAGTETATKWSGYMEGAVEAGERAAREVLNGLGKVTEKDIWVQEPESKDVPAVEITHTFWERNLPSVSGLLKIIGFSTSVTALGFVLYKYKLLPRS

For `CCSCCOc1ccc2nc(C3=N[C@@H](C(=O)O)CS3)sc2c1` [FMO-2, 6-(2-ethylthioethoxy)-luciferin], the “RLUs FMO 1” value [1] was 11.778 RLUs and 12.006 RLUs, the “RLUs FMO 3” value [2] was 12.194 RLUs and 10.425 RLUs and the RLUs control [3] was 8.7102 RLUs and 8.5489 RLUs.
In the case of `N=C(N)N1CCc2ccccc2C1` [debrisoquine], the IC50 [4] is reported as 77 µM.
In the case of `NCCc1ccccc1` [phenethylamine], the IC50 [5] is listed as 2 to 150 µM and the IC50 [6] is listed as 78 to 280 µM.
